O=C(c1ccccc1)c1ccc(Cl)cc1
solubility (mole fraction)
Conditions	278.15 K	283.15 K	288.15 K	293.15 K	298.15 K	303.15 K	308.15 K	313.15 K	318.15 K	323.15 K
in acetone	0.0863	0.0934	0.116	0.146	0.181	0.224	0.277	0.342	0.454	0.615
in acetonitrile	0.0216	0.0258	0.0352	0.0438	0.0625	0.0858	0.131	0.19	0.307	0.616
in ethanol	0.00817	0.0103	0.0124	0.0151	0.0195	0.0239	0.0318	0.043	0.06	0.0856
in ethyl acetate	0.114	0.118	0.138	0.167	0.203	0.24	0.294	0.351	0.43	0.534
in isobutanol	0.0102	0.0113	0.0138	0.0173	0.0225	0.0305	0.0408	0.0549	0.0821	0.123
in isopropanol	0.00704	0.00886	0.0118	0.0153	0.0187	0.0223	0.0288	0.0398	0.0617	0.0896
in methanol	0.00549	0.00622	0.00802	0.00943	0.012	0.0149	0.0203	0.027	0.0384	0.0594
in methyl acetate	0.0971	0.109	0.134	0.164	0.196	0.239	0.289	0.354	0.417	0.494
in n-butanol	0.0271	0.0304	0.0347	0.0394	0.0436	0.0478	0.0531	0.0677	0.0993	0.211
in n-butyl acetate	0.133	0.142	0.156	0.182	0.212	0.248	0.285	0.329	0.383	0.454
in n-propanol	0.0111	0.0128	0.0163	0.0205	0.0247	0.0325	0.0424	0.0571	0.0829	0.135

— BigSolDB 2.1
